From the NIST ThermoML archive (doi:10.1016/j.jct.2009.06.014)
± gives the expanded uncertainty stated by the source.

Assay: wn = mass fraction of the nth substance listed
Conditions: 101 kPa, Liquid, Vibrating tube method

CCCC[N+](CCCC)(CCCC)CCCC.[Br-] [tetrabutylammonium bromide] + O
mass density (293.15 K, w1 = 0.0697): 1003.85 ± 0.22 kg/m3 | mass density (293.15 K, w1 = 0.0999): 1006.63 ± 0.23 kg/m3 | mass density (293.15 K, w1 = 0.15): 1011.35 ± 0.23 kg/m3 | mass density (293.15 K, w1 = 0.1996): 1017.09 ± 0.23 kg/m3 | mass density (293.15 K, w1 = 0.25): 1021.73 ± 0.25 kg/m3 | mass density (293.15 K, w1 = 0.3499): 1030.98 ± 0.23 kg/m3 | mass density (293.15 K, w1 = 0.4002): 1036.25 ± 0.25 kg/m3 | mass density (293.15 K, w1 = 0.4498): 1041.41 ± 0.24 kg/m3 | mass density (293.15 K, w1 = 0.5): 1044.73 ± 0.24 kg/m3 | mass density (298.15 K, w1 = 0.0697): 1002.43 ± 0.22 kg/m3 | mass density (298.15 K, w1 = 0.0999): 1005.08 ± 0.22 kg/m3 | mass density (298.15 K, w1 = 0.15): 1009.55 ± 0.23 kg/m3 | mass density (298.15 K, w1 = 0.1996): 1015.11 ± 0.23 kg/m3 | mass density (298.15 K, w1 = 0.25): 1019.26 ± 0.24 kg/m3 | mass density (298.15 K, w1 = 0.2998): 1027.44 ± 0.23 kg/m3 | mass density (298.15 K, w1 = 0.3499): 1027.91 ± 0.22 kg/m3 | mass density (298.15 K, w1 = 0.4002): 1032.9 ± 0.24 kg/m3 | mass density (298.15 K, w1 = 0.4498): 1037.83 ± 0.24 kg/m3 | mass density (298.15 K, w1 = 0.5): 1041.06 ± 0.24 kg/m3 | mass density (303.15 K, w1 = 0.0697): 1000.8 ± 0.22 kg/m3 | mass density (303.15 K, w1 = 0.0999): 1003.31 ± 0.22 kg/m3 | mass density (303.15 K, w1 = 0.15): 1007.54 ± 0.23 kg/m3 | mass density (303.15 K, w1 = 0.1996): 1012.76 ± 0.23 kg/m3 | mass density (303.15 K, w1 = 0.25): 1016.66 ± 0.24 kg/m3 | mass density (303.15 K, w1 = 0.2998): 1024.31 ± 0.23 kg/m3 | mass density (303.15 K, w1 = 0.3499): 1024.77 ± 0.22 kg/m3 | mass density (303.15 K, w1 = 0.4002): 1029.49 ± 0.24 kg/m3 | mass density (303.15 K, w1 = 0.4498): 1034.23 ± 0.24 kg/m3 | mass density (303.15 K, w1 = 0.5): 1037.36 ± 0.24 kg/m3 | mass density (308.15 K, w1 = 0.0697): 998.95 ± 0.22 kg/m3 | mass density (308.15 K, w1 = 0.0999): 1001.34 ± 0.22 kg/m3 | mass density (308.15 K, w1 = 0.15): 1005.34 ± 0.23 kg/m3 | mass density (308.15 K, w1 = 0.1996): 1010.24 ± 0.23 kg/m3 | mass density (308.15 K, w1 = 0.25): 1013.92 ± 0.24 kg/m3 | mass density (308.15 K, w1 = 0.2998): 1021.1 ± 0.23 kg/m3 | mass density (308.15 K, w1 = 0.3499): 1021.55 ± 0.22 kg/m3 | mass density (308.15 K, w1 = 0.4002): 1026.04 ± 0.24 kg/m3 | mass density (308.15 K, w1 = 0.4498): 1030.59 ± 0.24 kg/m3 | mass density (308.15 K, w1 = 0.5): 1033.62 ± 0.24 kg/m3 | mass density (313.15 K, w1 = 0.0697): 996.91 ± 0.22 kg/m3 | mass density (313.15 K, w1 = 0.0999): 999.19 ± 0.22 kg/m3 | mass density (313.15 K, w1 = 0.15): 1002.97 ± 0.22 kg/m3 | mass density (313.15 K, w1 = 0.1996): 1007.59 ± 0.22 kg/m3 | mass density (313.15 K, w1 = 0.25): 1011.06 ± 0.23 kg/m3 | mass density (313.15 K, w1 = 0.2998): 1017.82 ± 0.23 kg/m3 | mass density (313.15 K, w1 = 0.3499): 1018.26 ± 0.22 kg/m3 | mass density (313.15 K, w1 = 0.4002): 1022.53 ± 0.24 kg/m3 | mass density (313.15 K, w1 = 0.4498): 1026.92 ± 0.24 kg/m3 | mass density (313.15 K, w1 = 0.5): 1029.85 ± 0.24 kg/m3 | mass density (318.15 K, w1 = 0.0697): 994.7 ± 0.22 kg/m3 | mass density (318.15 K, w1 = 0.0999): 996.86 ± 0.22 kg/m3 | mass density (318.15 K, w1 = 0.15): 1000.45 ± 0.22 kg/m3 | mass density (318.15 K, w1 = 0.1996): 1004.8 ± 0.22 kg/m3 | mass density (318.15 K, w1 = 0.25): 1008.08 ± 0.23 kg/m3 | mass density (318.15 K, w1 = 0.2998): 1014.47 ± 0.22 kg/m3 | mass density (318.15 K, w1 = 0.3499): 1014.9 ± 0.22 kg/m3 | mass density (318.15 K, w1 = 0.4002): 1018.98 ± 0.23 kg/m3 | mass density (318.15 K, w1 = 0.4498): 1023.21 ± 0.23 kg/m3 | mass density (318.15 K, w1 = 0.5): 1026.05 ± 0.24 kg/m3 | mass density (323.15 K, w1 = 0.0697): 992.32 ± 0.22 kg/m3 | mass density (323.15 K, w1 = 0.0999): 994.38 ± 0.22 kg/m3 | mass density (323.15 K, w1 = 0.15): 997.78 ± 0.22 kg/m3 | mass density (323.15 K, w1 = 0.1996): 1001.88 ± 0.22 kg/m3 | mass density (323.15 K, w1 = 0.25): 1005 ± 0.23 kg/m3 | mass density (323.15 K, w1 = 0.2998): 1011.05 ± 0.22 kg/m3 | mass density (323.15 K, w1 = 0.3499): 1011.47 ± 0.22 kg/m3 | mass density (323.15 K, w1 = 0.4002): 1015.38 ± 0.23 kg/m3 | mass density (323.15 K, w1 = 0.4498): 1019.46 ± 0.23 kg/m3 | mass density (323.15 K, w1 = 0.5): 1022.22 ± 0.23 kg/m3 | mass density (328.15 K, w1 = 0.0697): 989.78 ± 0.22 kg/m3 | mass density (328.15 K, w1 = 0.0999): 991.74 ± 0.22 kg/m3 | mass density (328.15 K, w1 = 0.15): 994.96 ± 0.22 kg/m3 | mass density (328.15 K, w1 = 0.1996): 998.84 ± 0.22 kg/m3 | mass density (328.15 K, w1 = 0.25): 1001.81 ± 0.23 kg/m3 | mass density (328.15 K, w1 = 0.2998): 1007.56 ± 0.22 kg/m3 | mass density (328.15 K, w1 = 0.3499): 1007.97 ± 0.22 kg/m3 | mass density (328.15 K, w1 = 0.4002): 1011.71 ± 0.23 kg/m3 | mass density (328.15 K, w1 = 0.4498): 1015.67 ± 0.23 kg/m3 | mass density (328.15 K, w1 = 0.5): 1018.35 ± 0.23 kg/m3 | mass density (333.15 K, w1 = 0.0697): 987.09 ± 0.22 kg/m3 | mass density (333.15 K, w1 = 0.0999): 988.96 ± 0.22 kg/m3 | mass density (333.15 K, w1 = 0.15): 992 ± 0.22 kg/m3 | mass density (333.15 K, w1 = 0.1996): 995.69 ± 0.22 kg/m3 | mass density (333.15 K, w1 = 0.25): 998.5 ± 0.22 kg/m3 | mass density (333.15 K, w1 = 0.2998): 1004 ± 0.22 kg/m3 | mass density (333.15 K, w1 = 0.3499): 1004.4 ± 0.22 kg/m3 | mass density (333.15 K, w1 = 0.4002): 1008 ± 0.23 kg/m3 | mass density (333.15 K, w1 = 0.4498): 1011.83 ± 0.23 kg/m3 | mass density (333.15 K, w1 = 0.5): 1014.45 ± 0.23 kg/m3
